According to patent US4985450A, “Arylthiadiazolylsulfonamides and derivatives” (priority 1989, dated 1991):

Columns and labels:
[1] = test system: intraocular pressure in alpha-chymotrypsin-induced ocular hypertensive rabbit eyes; assay: Alpha-chymotrypsin-induced ocular hypertension, maximum intraocular pressure drop; assay type: in vivo, New Zealand White rabbits
Description: This is done by the direct injection of the proteolytic enzyme, alpha-chymotrypsin into the posterior chamber of the rabbit eye.
Ocular hypertension is elicited in New Zealand White rabbits (2.0-2.5 kg) by the injection of alpha-chymotrypsin into the posterior chamber as described by Sears and Sears (Am. J. Ophthalmol. 77, 378-383, (1974). Briefly, the animals are pretreated with indomethacin (10 mg/kg i.p.) to prevent the otherwise immediate onset of inflammation. One hour later, the rabbits are anesthetized with a 2 ml intramuscular injection of a 50:50 mixture of xylazine (20 mg/kg) and ketamine (100 mg/kg). The eyes are individually proptosed and treated topically with 50 microliters of 0.5% proparacaine. The anterior chamber is cannulated with a 30-gauge needle attached to a reservoir set at a pressure of 25 mmHg. Then, 0.5 ml of alpha-chymotrypsin (350 units) is injected through the pupil near the limbus and into the posterior chamber using an S-curved, 30-gauge needle. During the injection, the tip of the needle is swept across the posterior chamber to distribute the enzyme. Care is taken to avoid injection of any enzyme into the corneal stroma. Both needles can then be carefully removed to prevent any significant loss of aqueous humor.
The eyes are examined biweekly for corneal lacerations and overt inflammatory responses. […] The intraocular pressures of the operated rabbits are checked approximately four weeks posttreatment. […]. Generally, about 50% of the operated eyes are suitable for study. Intraocular pressure is measured with a standard instrument and the results are expressed in terms of maximum (over measurment time) percentage drop of intraocular pressure.

carbonic anhydrase B = carbonic anhydrase B (Homo sapiens, UniProt P00915); assay: Carbonic anhydrase esterase inhibition (spectrophotometric rate of hydrolysis of 1 mM p-nitrophenyl acetate); assay type: biochemical; conditions: read-out: Carbonic Anhydase Esterase Inhibition IC50
Description: It is generally known that carbonic anhydrase inhibitors are useful for the treatment of glaucoma. The carbonic anhydrase inhibitory activities have been evaluated by spectrophotometrically measuring the rate of hydrolysis of 1 mM p-nitrophenyl acetate catalyzed by carbonic anhydrase B according to the procedure described in J. Armstrong et al., J. Biol. Chem., Vol 241, No. 21, pp 5137-5149 (1966).

Sequence of carbonic anhydrase B (P00915 2-261 limits assumed): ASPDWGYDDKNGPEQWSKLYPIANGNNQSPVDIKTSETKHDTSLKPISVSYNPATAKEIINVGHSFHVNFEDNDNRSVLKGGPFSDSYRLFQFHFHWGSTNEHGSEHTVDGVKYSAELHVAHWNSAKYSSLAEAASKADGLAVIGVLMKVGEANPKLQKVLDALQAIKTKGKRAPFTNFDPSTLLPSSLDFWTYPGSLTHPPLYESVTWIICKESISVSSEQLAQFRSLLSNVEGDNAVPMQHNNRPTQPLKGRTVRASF

Row | IC50 (carbonic anhydrase B) | Structure (SMILES) | Maximum Intraocular Pressure Drop ([1]; at 0.3%) | Maximum Intraocular Pressure Drop ([1]; at 3%) | Maximum Intraocular Pressure Drop ([1]; at 0.5%) | Maximum Intraocular Pressure Drop ([1]; at 1.0%)
1 | 270 nM | NS(=O)(=O)c1nc(-c2ccccc2Cl)ns1 [3-(2-Chlorophenyl)-1,2,4-thiadiazole-5-sulfonamide] | 24.8% |  |  | 
2 | 400 nM | COC(=NS(=O)(=O)c1nc(-c2ccccc2Cl)ns1)C(C)C [N-(1-Methoxy-2-methylpropylidene)-3-(2-chlorophenyl)-1,2,4-thiadiazole-5-sulfonamide] | 13% | 26% |  | 
3 |  | CC(C)(C)NC[C@H](O)COc1nsnc1N1CCOCC1 [Timolol, reference compound] |  |  | 27.5% | 28.0%
